According to patent US9611248B2, “Chemical compounds” (Syngenta Participations AG, priority 2013, dated 2017):

These compounds were tested on a variety of test species (assay: Post-emergence herbicidal activity). Conditions: rate 250 g/ha, evaluated after 13 days.
Type: in vivo
Design: key to ABUTH (Abutilon theophrasti) damage score / AMARE (Amaranthus retroflexus) damage score / ALOMY (Alopecurus myosuroides) damage score / ECHCG (Echinochloa crus-galli) damage score / ZEAMX (Zea mays) damage score / SOLNI (Solanum nigrum) damage score: 0 = no damage to plant, 5 = total damage to plant
Description: Seeds of a variety of test species were sown in standard soil in pots. After 8 days cultivation (post-emergence) under controlled conditions in a glasshouse (at 24/16° C., day/night; 14 hours light; 65% humidity), the plants were sprayed with an aqueous spray solution derived from the formulation of the technical active ingredient in acetone/water (50:50) solution containing 0.5% Tween 20 (polyoxyethelyene sorbitan monolaurate, CAS RN 9005-64-5). The test plants were then grown in a glasshouse under controlled conditions (at 24/16° C., day/night; 14 hours light; 65% humidity) and watered twice daily. After 13 days, the test was evaluated (5=total damage to plant; 0=no damage to plant, NC=not captured).

| Structure (SMILES) | ABUTH (Abutilon theophrasti) damage score | ALOMY (Alopecurus myosuroides) damage score | AMARE (Amaranthus retroflexus) damage score | ECHCG (Echinochloa crus-galli) damage score | SETFA (Setaria faberi) damage score | ZEAMX (Zea mays) damage score |
| --- | --- | --- | --- | --- | --- | --- |
| COC1=C(C)C(=O)N(c2cc(C(F)(F)F)c(OCc3ccco3)cn2)C1O (stereo not drawn) [AD86] | 4 | 2 | 5 | 1 | 3 | 0 |

Same assay, conditions: rate 1000 g/ha, evaluated after 13 days

| Structure (SMILES) | ABUTH (Abutilon theophrasti) damage score | ALOMY (Alopecurus myosuroides) damage score | AMARE (Amaranthus retroflexus) damage score | ECHCG (Echinochloa crus-galli) damage score | SETFA (Setaria faberi) damage score | ZEAMX (Zea mays) damage score | SOLNI (Solanum nigrum) damage score |
| --- | --- | --- | --- | --- | --- | --- | --- |
| CCc1cc(N2C(=O)C(C)=C(OC)C2O)ncc1-c1ccoc1 (stereo not drawn) [AD102] | 4 | 3 | 5 | 3 | 4 | 1 | – |
| COC1=C(C)C(=O)N(c2cc(Cl)c(-c3ccsc3)cn2)C1O (stereo not drawn) [AD134] | 3 | 1 | 5 | 2 | 5 | 1 | – |
| COC1=C(C)C(=O)N(c2cc(C(C)(C)C)ccn2)C1O (stereo not drawn) [AD40] | 5 | 5 | 5 | 5 | 5 | 3 | – |
| COC1=C(C)C(=O)N(c2cc(C)c(S(=O)(=O)NC(C)C)cn2)C1O (stereo not drawn) [AD95] | 5 | 4 | 5 | 4 | 5 | 0 | – |
| CCc1cc(N2C(=O)C(C)=C(OC)C2O)ncc1-c1ccccc1C (stereo not drawn) [AD107] | 5 | 2 | 5 | 2 | 3 | 1 | – |
| COC1=C(C)C(=O)N(c2cc(C)c(-c3ccccc3C)cn2)C1O (stereo not drawn) [AD66] | 4 | 1 | 5 | 4 | 5 | 0 | – |
| COC1=C(C)C(=O)N(c2cc(C(F)(F)F)c(Cl)cn2)C1O (stereo not drawn) [AD30] | 5 | 5 | 5 | 5 | 4 | 1 | – |
| CCCC1=C(Cl)C(O)N(c2cc(C(F)(F)F)ccn2)C1=O (stereo not drawn) [AA40] | 2 | 2 | 4 | 4 | 1 | 1 | – |
| COC1=C(C)C(=O)N(c2cc(C)c(-c3ccc(F)cc3)cn2)C1O (stereo not drawn) [AD60] | 5 | 2 | 5 | 1 | 4 | 1 | – |
| COC1=C(C)C(=O)N(c2cc(C(F)(F)F)c(I)cn2)C1O (stereo not drawn) [AD51] | 5 | 4 | 5 | 5 | 5 | 1 | – |
| CC1=C(Cl)C(O)N(c2cc(C(F)(F)F)c(Cl)cn2)C1=O (stereo not drawn) [AA26] | 1 | 2 | 5 | 3 | 3 | 0 | – |
| COC1=C(C)C(=O)N(c2ccc(OC(F)(F)F)cn2)C1O (stereo not drawn) [AD47] | 5 | 3 | 5 | 3 | 4 | 0 | – |
| CC1=C(Cl)C(O)N(c2nccc(C(F)(F)F)c2F)C1=O (stereo not drawn) [AA4] | 1 | 1 | 1 | 0 | 1 | 2 | – |
| COC1=C(C)C(=O)N(c2cc(C)c(-c3ccc4c(c3)OCO4)cn2)C1O (stereo not drawn) [AD112] | 4 | 2 | 5 | 3 | 3 | 1 | – |
| CCc1cc(N2C(=O)C(C)=C(OC)C2O)ncc1-c1ccccc1OC (stereo not drawn) [AD100] | 4 | 0 | 5 | 0 | 4 | 1 | – |
| COC1=C(Cl)C(=O)N(c2cc(C(C)(C)C)ncn2)C1O (racemic) [CF1] | 4 | 1 | 2 | 4 | 4 | 1 | – |
| CC1=C(Cl)C(O)N(c2cc(C(C)(C)C)ccn2)C1=O (stereo not drawn) [AA44] | 1 | 1 | 3 | 1 | 2 | 1 | – |
| COC1=C(C)C(=O)N(c2cc(C(F)(F)F)c(-c3cccc(F)c3)cn2)C1O (stereo not drawn) [AD133] | 5 | 2 | 5 | 4 | 4 | 3 | – |
| COC1=C(C)C(=O)N(c2cc(C(F)(F)F)c(C(=O)NC(C)C)cn2)C1O (stereo not drawn) [AD53] | 5 | 5 | 5 | 5 | 5 | 5 | – |
| CC1=C(Cl)C(O)N(c2ccc(OC(F)(F)F)cn2)C1=O (stereo not drawn) [AA38] | 1 | 1 | 4 | 1 | 1 | 0 | – |
| CCc1cc(N2C(=O)C(C)=C(OC)C2O)ncc1-c1ccc(F)cc1 (stereo not drawn) [AD62] | 4 | 3 | 5 | 3 | 5 | 0 | – |
| COC1=C(C)C(=O)N(c2ccc(C(F)(F)F)cn2)C1O (stereo not drawn) [AD35] | – | 3 | 5 | 3 | 4 | 0 | 5 |
| CCN(CC)C(=O)c1cnc(N2C(=O)C(C)=C(OC)C2O)cc1C(F)(F)F (stereo not drawn) [AD92] | 5 | 4 | 4 | 5 | 4 | 3 | – |
| CC(C)(C)C1=C(Cl)C(O)N(c2cc(C(F)(F)F)ccn2)C1=O (stereo not drawn) [AA41] | 0 | 0 | 0 | 3 | 0 | 2 | – |
| CC1=C(Cl)C(O)N(c2cc(Br)ccn2)C1=O (stereo not drawn) [AA31] | – | 1 | 5 | 2 | 3 | 0 | 5 |
| COC1=C(C)C(=O)N(c2cc(C)c(-c3cccc([N+](=O)[O-])c3)cn2)C1O (stereo not drawn) [AD118] | 5 | 2 | 5 | 2 | 4 | 0 | – |
| COC1=C(Cl)C(O)N(c2cc(C(C)(F)F)ccn2)C1=O (stereo not drawn) [AF3] | 5 | 3 | 5 | 5 | 5 | 1 | – |
| CC(C)C1=C(Cl)C(O)N(c2cc(C(F)(F)F)ccn2)C1=O (stereo not drawn) [AA42] | 3 | 1 | 3 | 0 | 0 | 1 | – |
| COC1=C(C)C(=O)N(c2cc(C)c(-c3ccoc3)cn2)C1O (stereo not drawn) [AD113] | 3 | 2 | 5 | 2 | 1 | 1 | – |
